Consider 3 substances from patent US9365851B2, “Spalt-like transcription factor 4 (SALL4) and uses thereof” (National University of Singapore, priority 2011, dated 2016).

“Also recorded” adds a separate entry of the source.

For one series, the system named is SNU-387 cells. The experiment in a line: Cell viability assay (MTT/MTS). It is filed as cell-based, human. Conditions: for cell viability / number of viable cells: SNU-387 (low/no SALL4), 72 h. The method, then:
Cell viability was determined 72 hours after peptide treatments. Absorbance at 490 nm is directly correlated to cell viability. Wild type functional SALL4 peptide (wt), mutant non-functional SALL4 peptide (Mut.), trichostatin A (TSA), scrambled control peptide (Scr.), wild type peptide+PTEN inhibitor SF1670 (wt+Inh.) were given to the cells at the indicated concentration. PTEN inhibitor concentration was 400 nM. (31C, 31D) Western blot analyses of the effects of peptides on PTEN, AKT, and pAKT expression on SNU-398 (31C) and SNU-387 (31D) cells 72 hours following peptide treatments. 20 μM of wt or Scr. peptide or 100 nM of TSA was used. PTEN inhibitor concentration was 400 nM. (31E) Representative images show NOD/SCID mice transplanted with Scr peptide- and wt peptide-treated SNU-398 cells (left) and the dissected subcutaneous tumors (right). Arrow indicates subcutaneous tumor. (31F) Growth curve of subcutaneous tumors (left panel) and tumor weight of tumors dissected at day 26 post-transplantation (right panel). Results are mean±s.d. n=5; * P<0.05. (31G) Representative images show NOD/SCID mice transplanted with 3 million SNU-398 cells at the left flank and treated intraperitoneally for five consecutive days with 56 mg/kg body weight TAT-Mut. peptide or 60 mg/kg body weight wt peptide (top panel) and the dissected subcutaneous tumors (bottom). (31H) Tumor weight of tumors dissected at day 18 post-transplantation and post-treatment of mice treated intraperitoneally with TAT fusion peptides as described in 5 g. Results are mean±s.d. n=5; * P<0.05.
Cell viability assay (MTT) (Invitrogen) was performed according to the manufacturer's instructions. Briefly—10000 cells were seeded in 100 ul medium in 96 well plates. The next day cells were treated as indicated on the figures. At the designated time after the treatment 20 ul of 5 mg/ml MTT solution was added to each well. After 3.5 h incubation at 37 C the medium was removed and the reaction was terminated with a solution of 4 mM HCl, 0.1% Nondet P-40 (NP40) all in isopropanol in dark on orbital shaker for […]. at room temperature. The absorbance was read at 590 nm with a reference filter of 620 nm in Spectromax M3 (ABI) spectrophotometer.
7000 cells were seeded in each wells of a microtiter plate in 100 μL of complete medium. Cells from each treatment were seeded in duplicate. Controls using the same medium without cells were set up in parallel. At various time points, 317 μg/mL of 3-(4,5-dimethylthiazol-2-yl)-5-(3-carboxymethoxyphenyl)-2-(4-sulfophenyl)-2H-tetrazolium (CellTiter96® AQueous One Solution Cell Proliferation Assay, Promega) was added to each well. After four hours incubation of the tetrazolium salt, absorbance at 490 nm was read by a microplate reader.

The subject of a further series is HDAC1 and HDAC2. Kind of series: Anti-FITC pull-down of FITC-labeled peptides from SNU-398 nuclear extracts, Western blot for HDAC1/HDAC2. The class given is binding, human. As to conditions: anti-FITC IP. The method, then:
For the pull down assay FITC-labeled version of the peptides and anti-FITC antibody (Santa Kruz, Calif.) was used. The antibody was immobilized covalently on the surface of Dinabeads (Invitrogen). The magnetic beads were than used in the pull down reaction according to the instruction of the manufacturer with the following minor modifications: 1 mM DTT, 0.1 mM NaF, 1 mM PMSF, 1 mM Na orthovanadate, and 1:100 final dilution of protease inhibitor, (Sigma Co.) was added to the extraction buffer. The NaCl concentration was optimized to 100 mM. Eluted proteins were submitted to Western blotting using standard procedure and the protein bands were visualized using antibodies to HDAC1 and 2 (Sigma)
Next tested was whether this wt 12-AA could compete with SALL4 in interacting with NuRD. A hepatocellular carcinoma cell line SNU-398 with abundant SALL4 expression was chosen for the following groups of experiences. Whether the wt 12-AA or its control (Mut and Scr) can bind to HDAC1 and HDAC2, the two NuRD components, was first evaluated. […] The histone deacetylase activity of the peptide pull-down complex was then measured using a Fluorescent Assay kit (Active Motif) (FIG. 1D). The active enzymatic activity of the HDACs tested by this assay corresponds to the amount of the HDAC proteins in the sample.
First evaluated was whether the wild type peptide or the mutant or scrambled controls could bind to HDAC1 and HDAC2, which comprise part of the NuRD complex 38. The hepatocellular carcinoma (HCC) cell line SNU-398 expresses abundant amount of SALL4 and was chosen for the following 9 experiments. […] To test this possibility, the histone deacetylase activity of the peptide pull-down complex was measured using a fluorescent assay kit (FIG. 8C). The active enzymatic activity of the HDACs tested by this assay corresponded to the amount of the HDAC proteins in the sample.
(In general: A western blot detects proteins with antibodies after separation by electrophoresis.)

The subject of another series is HDAC. Kind of series: HDAC activity assay of peptide pull-down complex (SNU-398 nuclear extracts). It is filed as biochemical, human. As to conditions: compared to IgG control. As for the experimental part: Assay was performed with the Fluorescent HDAC Assay Kit (Active Motif) having the following modifications: Following the pull down described in Western Blotting section the proteins bound to the beads were eluted in buffer containing 20 mM HEPES (pH 7.5) 350 mM NaCl, 20% glycerol, 1% Igepal CA-630, 1 mM MgCl2, 5 mM DTT and Protease inhibitors (Sigma). The eluates were used as an HDAC enzyme source in an enzymatic reaction for 2 h at 37 C. The HDAC reactions were performed twice on various samples, and each time in triplicate.
Next tested was whether this wt 12-AA could compete with SALL4 in interacting with NuRD. A hepatocellular carcinoma cell line SNU-398 with abundant SALL4 expression was chosen for the following groups of experiences. Whether the wt 12-AA or its control (Mut and Scr) can bind to HDAC1 and HDAC2, the two NuRD components, was first evaluated. […] The histone deacetylase activity of the peptide pull-down complex was then measured using a Fluorescent Assay kit (Active Motif) (FIG. 1D). […]
First evaluated was whether the wild type peptide or the mutant or scrambled controls could bind to HDAC1 and HDAC2, which comprise part of the NuRD complex 38. […] To test this possibility, the histone deacetylase activity of the peptide pull-down complex was measured using a fluorescent assay kit (FIG. 8C). […]

For the substance “CTATTTAGCCAAAGGCAAA (short hairpin RNA, chemistry and delivery not given here, further chemistry not given here) [E5 shRNA]”, in the series on SNU-387 cells (SNU-387, MTS), the “cell viability upon SALL4 knockdown” value is “number of viable cells was similar”.

For “H-MSRRKQAKPQHI-OH [wt peptide, MSRRKQAKPQHI]”, the “HDAC1 and HDAC2 detected in peptide pull-down” value in the series with HDAC1 and HDAC2 (listed as wild type peptide) is reported as “easily detected”; with HDAC1 and HDAC2 (listed as wt), “detected”. Besides, in the series on HDAC, the “HDAC activity of peptide pull-down complex” value is reported as “the most HDAC activity”. Moreover, the “cell viability / number of viable cells” value is listed as “had no effects; also recorded: did not affect the cell viability” in the series with SNU-387 cells, “had no effect” with SNU-387 cells (listed as SALL4 peptide) and “no change in cell viability” with SNU-387 cells (listed as wt).

Take “Scr peptide: same 12 amino acids as the wt peptide, but in a scrambled sequence; negative control (SRMRQKIHPKIQ) [reference compound]”: the “HDAC1 and HDAC2 detected in peptide pull-down” value in the series with HDAC1 and HDAC2 is given as “never”; in the series with HDAC1 and HDAC2 (listed as scrambled peptide), “undetectable”. The “HDAC activity of peptide pull-down complex” value in the series on HDAC is “no HDAC activity”. Besides, the “cell viability / number of viable cells” value in the series with SNU-387 cells was “no change in cell viability”.
